Data on three molecules can be found in patent publication US20050085645A1, “O-(3-chloropropenyl) hydroxylamine free base” (priority 2003, published 2005).

For one series, the system named is plants. The series can be described thus: Herbicidal potency of clethodim enantiomer versus racemate. The class given is in vivo. The conditions noted are these: used in a herbicidal composition; no test data given.
Series [1] can be described thus: Storage stability of CPHA free base and CPHA-HCl solutions (decomposition / GC purity drop). The class given is physicochemical. Here is the method: Neither preparation nor applications of solvent-free CPHA free base or aqueous CPHA solution has been reported in the prior art. […] For example, a commercial 40% CPHA-HCl solution decomposes by 52% after 23 days at 35° C., whereas, a 85% CPHA aqueous solution has only 1.1% purity drop after 78 days at 40° C.
The GC method set up for CPHA purity, impurity profile, and hydroxylamine content determination is described as follows. • Instrument: HP 6890 series GC system. • Column: HP-1 capillary column, 10 m×0.53 mm×[…]. • Detector: FID, 250° C. • Inlet: 200° C. • Oven Temperature program: • Initial temperature: 40° C. • Initial time: 2 minutes. • Ramps: 10° C./min, 65° C., 0 minutes • 20° C./min, 250° C., 3 minutes.
Weigh about 2.00 g of sample in a vial containing 2.20 g of cyclohexanone; Add 50% sodium hydroxide if necessary to bring pH to above 9. Stir the mixture in the capped vial at 50° C. for 2 hours. After cooling, add 8.0 g of dichloromethane and shake for one minute. Settle the mixture for 5 minutes. Take the organic phase for gas chromatographic (GC) analysis. CPHA purity and impurity profile are directly based on GC area. Hydroxylamine content is calculated based on the integration area of cyclohexanone oxime (cyclohexanoxime) peak and O-(chloro-2-propenyl)cyclohexanoxime peak.

The nature of series [2]: Solubility / miscibility in water. The class given is physicochemical.
Series [3] is described as follows: Solubility in organic solvents. The class given is physicochemical. The conditions noted are these: ethers, alcohol, toluene, chlorinated alkanes. From the text:
For example, to make a O-(3-chloro-2-propenyl)hydroxylamine solution in dichloromethane, CPHA is simply mixed with dichloromethane. No exotherm was observed.

On to `CCSC(C)CC1CC(=O)C(/C(CC)=N/OC/C=C/Cl)=C(O)C1` (single isomer, unassigned; (-)) [(−) clethodim], for which the “potency compared to the racemic form or (+) clethodim” value in the series with plants is recorded as “increased potency”.
Turning to `NOCC=CCl` [CPHA, O-(3-Chloro-2-propenyl)hydroxylamine], in series [1] (85% CPHA aqueous solution, after 78 days at 40° C.), the purity drop came to 1.1%. Further, the miscibility with water entry in series [2] (room temperature) is listed as “miscible with water”. In series [3], the “solubility in organic solvents” value is recorded as “soluble in many organic solvents”.
With `Cl.NOCC=CCl` [CPHA-HCl, O-(3-chloro-2-propenyl)hydroxylamine hydrochloride, reference compound], the decomposition of solution in series [1] (commercial 40% CPHA-HCl solution, after 23 days at 35° C.) worked out at 52%. For the same molecule, the maximum solubility entry in series [2] (commercially available CPHA-HCl solution in water) is “about 45%”.
